Measured values published in patent US20260274829A1, “NEW E3 UBIQUITIN LIGASE LIGAND, PROTEIN DEGRADATION AGENT AND USE THEREOF” (GLUETACS THERAPEUTICS (SHANGHAI) CO., LTD., priority 2023, published 2026).

Tests used:
Type in all cases: cell-based
CK1a = target: T1, CK1a (Homo sapiens, UniProt P48729+Q96SW2); test: Western blot degradation of CK1a in hPBMC
T1 construct: endogenous in cells; host or cells: hPBMC
Experimental: (§1) Conventional Western blot assay was performed to evaluate the effects of the compounds of the present disclosure on the expression of target proteins in cells.
(§2) • (1) Cell Seeding and Protein Harvesting: The selected cells were processed according to the cell seeding procedure and protein harvesting procedure in Table III-2.
(§3) • (2) To the collected supernatant, 5×SDS sample loading buffer was added, followed by denaturation at 95° C. for 5 minutes. The denatured samples were then separated by SDS-PAGE electrophoresis on a polyacrylamide gel. Proteins were transferred to a nitrocellulose membrane ([…] NC membrane), blocked with blocking buffer at room temperature for 1 hour, and subjected to antibody incubation and development procedures according to the antibody manufacturer's instructions (Cell Signaling Technology).
(§4) Half-Maximal Degradation Concentration value (the drug concentration required for degrading proteins by 50%, abbreviated as DC50) reads method: comparing the grayscale values of Western blot bands from drug-treated samples with those from blank DMSO-treated controls, and identifying the drug concentration range at which the grayscale value is half that of the DMSO-treated control bands.
(§5) DC50 values can be calculated using ImageJ software to measure grayscale values of Western blot bands from drug-treated samples. The concentration-response curve is fitted to estimate the drug concentration corresponding to half the grayscale value.
(§6) Target protein remaining (0%) refers to the percentage of target protein remaining in hPBMC cells after treatment with protein degrader compounds.
(§7) Calculation method for target protein remaining (0%): Use ImageJ software to measure grayscale values of Western blot bands from drug (protein degrader)-treated samples. The grayscale value of drug-treated bands is divided by that of internal control protein bands, and the resulting quotient is normalized to obtain the relative percentage of remaining target protein after protein degrader treatment.

IKZF2 = target: T2, IKZF2 (Homo sapiens, UniProt Q96SW2+Q9UKS7); test: Western blot degradation of IKZF2 in hPBMC
T2 construct: endogenous in cells; host or cells: hPBMC
T2 sequence (Q9UKS7 whole entry): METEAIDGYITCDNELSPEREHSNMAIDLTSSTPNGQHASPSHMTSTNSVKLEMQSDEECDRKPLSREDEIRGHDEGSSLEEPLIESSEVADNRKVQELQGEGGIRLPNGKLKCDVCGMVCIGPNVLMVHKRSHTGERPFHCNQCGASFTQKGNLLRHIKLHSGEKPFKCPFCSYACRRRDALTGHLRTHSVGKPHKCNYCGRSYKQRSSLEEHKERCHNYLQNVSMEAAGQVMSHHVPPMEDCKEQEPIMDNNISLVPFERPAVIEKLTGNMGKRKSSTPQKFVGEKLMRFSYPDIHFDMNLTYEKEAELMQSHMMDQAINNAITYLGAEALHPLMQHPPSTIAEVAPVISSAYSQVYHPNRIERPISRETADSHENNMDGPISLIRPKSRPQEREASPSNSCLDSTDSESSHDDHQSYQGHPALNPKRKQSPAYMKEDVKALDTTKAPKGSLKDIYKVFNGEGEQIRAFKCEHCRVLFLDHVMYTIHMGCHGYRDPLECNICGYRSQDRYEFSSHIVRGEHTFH
T2 sequence (Q96SW2 whole entry): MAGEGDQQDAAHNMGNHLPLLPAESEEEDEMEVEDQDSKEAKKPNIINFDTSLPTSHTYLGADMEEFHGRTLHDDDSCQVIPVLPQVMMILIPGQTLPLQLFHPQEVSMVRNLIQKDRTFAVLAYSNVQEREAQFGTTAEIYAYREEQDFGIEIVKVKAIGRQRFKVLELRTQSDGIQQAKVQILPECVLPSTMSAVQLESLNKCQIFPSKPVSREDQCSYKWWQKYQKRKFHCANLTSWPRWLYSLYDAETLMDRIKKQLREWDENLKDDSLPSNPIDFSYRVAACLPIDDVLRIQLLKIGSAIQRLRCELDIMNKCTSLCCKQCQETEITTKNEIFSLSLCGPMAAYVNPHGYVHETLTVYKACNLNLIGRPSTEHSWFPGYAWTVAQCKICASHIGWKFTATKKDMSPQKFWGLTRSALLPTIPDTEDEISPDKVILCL
T2 sequence (Q16531 whole entry partner): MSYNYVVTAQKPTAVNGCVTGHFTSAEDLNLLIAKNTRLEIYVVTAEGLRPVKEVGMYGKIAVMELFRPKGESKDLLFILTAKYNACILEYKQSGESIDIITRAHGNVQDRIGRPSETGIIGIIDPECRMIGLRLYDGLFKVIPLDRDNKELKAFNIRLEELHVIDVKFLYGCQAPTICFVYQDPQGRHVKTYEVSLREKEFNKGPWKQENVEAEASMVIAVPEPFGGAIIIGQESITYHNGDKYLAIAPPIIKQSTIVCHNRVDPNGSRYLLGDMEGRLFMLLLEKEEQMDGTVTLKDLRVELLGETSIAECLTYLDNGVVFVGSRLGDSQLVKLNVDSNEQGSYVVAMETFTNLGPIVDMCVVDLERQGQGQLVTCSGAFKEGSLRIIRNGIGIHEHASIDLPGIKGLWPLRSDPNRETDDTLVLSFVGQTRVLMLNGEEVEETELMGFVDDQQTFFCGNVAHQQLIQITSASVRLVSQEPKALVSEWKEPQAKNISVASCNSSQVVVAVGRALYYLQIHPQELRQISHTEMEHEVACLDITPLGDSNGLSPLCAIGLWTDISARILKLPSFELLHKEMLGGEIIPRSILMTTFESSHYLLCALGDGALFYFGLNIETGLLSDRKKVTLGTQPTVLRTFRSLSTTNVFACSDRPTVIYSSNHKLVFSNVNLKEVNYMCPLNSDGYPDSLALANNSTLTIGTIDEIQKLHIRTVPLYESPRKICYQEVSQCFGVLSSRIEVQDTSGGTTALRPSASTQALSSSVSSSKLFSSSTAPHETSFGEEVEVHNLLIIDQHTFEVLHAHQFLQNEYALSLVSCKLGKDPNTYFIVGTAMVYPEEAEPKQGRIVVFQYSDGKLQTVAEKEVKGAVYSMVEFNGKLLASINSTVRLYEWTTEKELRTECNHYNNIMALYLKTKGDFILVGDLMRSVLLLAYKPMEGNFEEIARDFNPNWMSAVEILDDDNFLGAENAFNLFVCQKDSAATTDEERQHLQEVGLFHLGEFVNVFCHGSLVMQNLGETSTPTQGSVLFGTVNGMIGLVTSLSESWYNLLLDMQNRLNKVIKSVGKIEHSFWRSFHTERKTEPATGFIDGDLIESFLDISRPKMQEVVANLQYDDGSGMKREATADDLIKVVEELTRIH
Experimental: as §1, §2, §3, §4, §5, §6, §7

GSPT1 = target: T3, GSPT1 (Homo sapiens, UniProt P15170+Q96SW2); test: Western blot degradation of GSPT1 in hPBMC
T3 construct: endogenous in cells; host or cells: hPBMC
T3 sequence (P15170 whole entry): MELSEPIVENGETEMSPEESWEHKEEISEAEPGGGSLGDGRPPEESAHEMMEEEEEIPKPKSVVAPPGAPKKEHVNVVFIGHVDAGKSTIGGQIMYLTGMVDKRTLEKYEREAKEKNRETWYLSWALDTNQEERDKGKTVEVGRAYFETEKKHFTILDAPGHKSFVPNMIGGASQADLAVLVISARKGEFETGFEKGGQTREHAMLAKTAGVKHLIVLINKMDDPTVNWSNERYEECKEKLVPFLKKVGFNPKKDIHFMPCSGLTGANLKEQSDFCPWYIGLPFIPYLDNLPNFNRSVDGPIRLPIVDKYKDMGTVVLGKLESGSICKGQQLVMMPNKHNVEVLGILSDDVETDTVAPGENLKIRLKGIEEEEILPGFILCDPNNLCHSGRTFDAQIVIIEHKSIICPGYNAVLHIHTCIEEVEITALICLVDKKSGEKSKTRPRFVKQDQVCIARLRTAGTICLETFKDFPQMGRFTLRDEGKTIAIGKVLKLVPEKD
T3 sequence (Q96SW2 whole entry): as the sequence (Q96SW2 whole entry) above
T3 sequence (Q16531 whole entry partner): as the sequence (Q16531 whole entry partner) above
Experimental: as §1, §2, §3, §4, §5, §6, §7

IKZF3 = target: T4, IKZF3 (Homo sapiens, UniProt Q96SW2+Q9UKT9); test: Western blot degradation of IKZF3 in hPBMC
T4 construct: endogenous in cells; host or cells: hPBMC
T4 sequence (Q9UKT9 whole entry): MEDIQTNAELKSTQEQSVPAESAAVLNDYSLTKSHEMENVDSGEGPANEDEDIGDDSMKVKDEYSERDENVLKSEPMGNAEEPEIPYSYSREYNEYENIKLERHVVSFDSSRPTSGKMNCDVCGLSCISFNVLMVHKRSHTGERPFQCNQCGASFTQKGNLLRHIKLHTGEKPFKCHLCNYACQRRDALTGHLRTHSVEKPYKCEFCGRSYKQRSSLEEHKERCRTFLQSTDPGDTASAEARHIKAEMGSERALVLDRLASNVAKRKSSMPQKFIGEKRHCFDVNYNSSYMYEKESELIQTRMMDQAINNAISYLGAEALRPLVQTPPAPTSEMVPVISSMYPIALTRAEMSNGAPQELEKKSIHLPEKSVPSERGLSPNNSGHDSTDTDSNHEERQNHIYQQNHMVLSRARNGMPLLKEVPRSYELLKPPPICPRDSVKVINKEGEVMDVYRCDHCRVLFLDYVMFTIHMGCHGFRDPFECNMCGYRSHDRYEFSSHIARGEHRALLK
T4 sequence (Q96SW2 whole entry): as the sequence (Q96SW2 whole entry) above
T4 sequence (Q16531 whole entry partner): as the sequence (Q16531 whole entry partner) above
Experimental: as §1, §2, §3, §4, §5, §6, §7

WEE1 = target: T5, WEE1 (Homo sapiens, UniProt P30291+Q96SW2); test: Western blot degradation of WEE1 in hPBMC
T5 construct: endogenous in cells; host or cells: hPBMC
T5 sequence (P30291 whole entry): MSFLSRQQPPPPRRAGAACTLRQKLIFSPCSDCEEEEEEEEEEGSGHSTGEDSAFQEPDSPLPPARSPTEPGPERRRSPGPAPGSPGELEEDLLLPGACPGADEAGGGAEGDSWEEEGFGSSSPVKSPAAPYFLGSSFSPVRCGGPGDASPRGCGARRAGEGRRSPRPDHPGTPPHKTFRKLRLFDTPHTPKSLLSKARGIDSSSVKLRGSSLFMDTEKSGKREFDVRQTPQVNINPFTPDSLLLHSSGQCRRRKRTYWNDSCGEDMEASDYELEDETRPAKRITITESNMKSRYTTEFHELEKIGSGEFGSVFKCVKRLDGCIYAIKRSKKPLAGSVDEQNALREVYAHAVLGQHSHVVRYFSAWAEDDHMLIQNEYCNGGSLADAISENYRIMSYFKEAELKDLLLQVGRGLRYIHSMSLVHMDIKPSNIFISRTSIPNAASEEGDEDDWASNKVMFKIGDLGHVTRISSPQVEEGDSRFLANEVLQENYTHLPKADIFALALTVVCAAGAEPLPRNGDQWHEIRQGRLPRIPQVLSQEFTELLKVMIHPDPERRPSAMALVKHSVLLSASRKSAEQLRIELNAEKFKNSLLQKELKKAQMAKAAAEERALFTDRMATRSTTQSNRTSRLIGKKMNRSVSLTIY
T5 sequence (Q96SW2 whole entry): as the sequence (Q96SW2 whole entry) above
T5 sequence (Q16531 whole entry partner): as the sequence (Q16531 whole entry partner) above
Experimental: as §1, §2, §3, §4, §5, §6, §7

IKZF1 = target: T6, IKZF1 (Homo sapiens, UniProt Q13422+Q96SW2); test: Western blot degradation of IKZF1 in hPBMC
T6 construct: endogenous in cells; host or cells: hPBMC
T6 sequence (Q13422 whole entry): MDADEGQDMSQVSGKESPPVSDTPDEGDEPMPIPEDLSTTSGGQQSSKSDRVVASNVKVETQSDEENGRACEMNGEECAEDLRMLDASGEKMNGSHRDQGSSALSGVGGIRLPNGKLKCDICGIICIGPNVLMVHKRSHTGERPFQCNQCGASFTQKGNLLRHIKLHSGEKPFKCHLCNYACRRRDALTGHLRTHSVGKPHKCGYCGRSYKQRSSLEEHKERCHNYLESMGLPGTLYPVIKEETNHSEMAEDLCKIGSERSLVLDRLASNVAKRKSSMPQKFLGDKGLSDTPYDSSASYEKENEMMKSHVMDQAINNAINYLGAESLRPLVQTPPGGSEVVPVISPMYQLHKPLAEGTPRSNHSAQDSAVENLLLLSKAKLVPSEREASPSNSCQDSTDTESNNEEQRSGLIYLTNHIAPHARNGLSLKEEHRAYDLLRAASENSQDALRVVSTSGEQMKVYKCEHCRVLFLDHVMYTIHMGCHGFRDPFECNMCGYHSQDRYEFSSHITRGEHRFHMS
T6 sequence (Q96SW2 whole entry): as the sequence (Q96SW2 whole entry) above
T6 sequence (Q16531 whole entry partner): as the sequence (Q16531 whole entry partner) above
Experimental: as §1, §2, §3, §4, §5, §6, §7

NCc1cc(N2CCC(=O)NC2=O)ncc1F [GT-07369, 1-(4-(aminomethyl)-5-fluoropyridin-2-yl)dihydropyrimidine-2,4(1H,3H)-dione]
Degradation of substrate protein CK1a (substrate protein remaining %) (CK1a): A (A is defined as 0% ≤ substrate protein remaining % ≤ 80%)
Degradation of substrate protein IKZF2 (substrate protein remaining %) (IKZF2): B (B is defined as substrate protein remaining % > 80%)
Degradation of substrate protein GSPT1 (substrate protein remaining %) (GSPT1): A (A is defined as 0% ≤ substrate protein remaining % ≤ 80%)
Degradation of substrate protein IKZF3 (substrate protein remaining %) (IKZF3): B (B is defined as substrate protein remaining % > 80%)
Degradation of substrate protein WEE1 (substrate protein remaining %) (WEE1): B (B is defined as substrate protein remaining % > 80%)
Degradation of substrate protein IKZF1 (substrate protein remaining %) (IKZF1): B (B is defined as substrate protein remaining % > 80%)

O=C1CCC(c2ncccc2CO)C(=O)N1 (stereo not drawn) [GT-07370, 3-(3-(hydroxymethyl)pyridin-2-yl)piperidine-2,6-dione]
Degradation of substrate protein CK1a (substrate protein remaining %) (CK1a): A (A is defined as 0% ≤ substrate protein remaining % ≤ 80%)
Degradation of substrate protein IKZF2 (substrate protein remaining %) (IKZF2): B (B is defined as substrate protein remaining % > 80%)
Degradation of substrate protein GSPT1 (substrate protein remaining %) (GSPT1): A (A is defined as 0% ≤ substrate protein remaining % ≤ 80%)
Degradation of substrate protein IKZF3 (substrate protein remaining %) (IKZF3): B (B is defined as substrate protein remaining % > 80%)
Degradation of substrate protein WEE1 (substrate protein remaining %) (WEE1): B (B is defined as substrate protein remaining % > 80%)
Degradation of substrate protein IKZF1 (substrate protein remaining %) (IKZF1): B (B is defined as substrate protein remaining % > 80%)

O=C1CCC(c2ncc(CO)cc2F)C(=O)N1 (stereo not drawn) [GT-07443, 3-(3-fluoro-5-(hydroxymethyl)pyridin-2-yl)piperidine-2,6-dione]
Degradation of substrate protein CK1a (substrate protein remaining %) (CK1a): A (A is defined as 0% ≤ substrate protein remaining % ≤ 80%)
Degradation of substrate protein IKZF2 (substrate protein remaining %) (IKZF2): A (A is defined as 0% ≤ substrate protein remaining % ≤ 80%)
Degradation of substrate protein GSPT1 (substrate protein remaining %) (GSPT1): A (A is defined as 0% ≤ substrate protein remaining % ≤ 80%)
Degradation of substrate protein IKZF3 (substrate protein remaining %) (IKZF3): B (B is defined as substrate protein remaining % > 80%)
Degradation of substrate protein WEE1 (substrate protein remaining %) (WEE1): A (A is defined as 0% ≤ substrate protein remaining % ≤ 80%)
Degradation of substrate protein IKZF1 (substrate protein remaining %) (IKZF1): A (A is defined as 0% ≤ substrate protein remaining % ≤ 80%)

O=C1CCC(c2cc(CO)c(F)cn2)C(=O)N1 (stereo not drawn) [GT-07444, 3-(5-fluoro-4-(hydroxymethyl)pyridin-2-yl)piperidine-2,6-dione]
Degradation of substrate protein CK1a (substrate protein remaining %) (CK1a): B (B is defined as substrate protein remaining % > 80%)
Degradation of substrate protein IKZF2 (substrate protein remaining %) (IKZF2): A (A is defined as 0% ≤ substrate protein remaining % ≤ 80%)
Degradation of substrate protein GSPT1 (substrate protein remaining %) (GSPT1): B (B is defined as substrate protein remaining % > 80%)
Degradation of substrate protein IKZF3 (substrate protein remaining %) (IKZF3): A (A is defined as 0% ≤ substrate protein remaining % ≤ 80%)
Degradation of substrate protein WEE1 (substrate protein remaining %) (WEE1): B (B is defined as substrate protein remaining % > 80%)
Degradation of substrate protein IKZF1 (substrate protein remaining %) (IKZF1): B (B is defined as substrate protein remaining % > 80%)

CC(C)(C)[Si](C)(C)OCc1ccc(NC2CCC(=O)NC2=O)cn1 (stereo not drawn) [GT-07445, 3-((6-(((tert-butyldimethylsilyl)oxy)methyl)pyridin-3-yl)amino)piperidine-2,6-dione]
Degradation of substrate protein CK1a (substrate protein remaining %) (CK1a): A (A is defined as 0% ≤ substrate protein remaining % ≤ 80%)
Degradation of substrate protein IKZF2 (substrate protein remaining %) (IKZF2): B (B is defined as substrate protein remaining % > 80%)
Degradation of substrate protein GSPT1 (substrate protein remaining %) (GSPT1): A (A is defined as 0% ≤ substrate protein remaining % ≤ 80%)
Degradation of substrate protein IKZF3 (substrate protein remaining %) (IKZF3): B (B is defined as substrate protein remaining % > 80%)
Degradation of substrate protein WEE1 (substrate protein remaining %) (WEE1): A (A is defined as 0% ≤ substrate protein remaining % ≤ 80%)
Degradation of substrate protein IKZF1 (substrate protein remaining %) (IKZF1): A (A is defined as 0% ≤ substrate protein remaining % ≤ 80%)

O=C1CCC(Nc2ccc(CO)nc2)C(=O)N1 (stereo not drawn) [GT-07446, 3-((6-(hydroxymethyl)pyridin-3-yl)amino)piperidine-2,6-dione]
Degradation of substrate protein CK1a (substrate protein remaining %) (CK1a): A (A is defined as 0% ≤ substrate protein remaining % ≤ 80%)
Degradation of substrate protein IKZF2 (substrate protein remaining %) (IKZF2): A (A is defined as 0% ≤ substrate protein remaining % ≤ 80%)
Degradation of substrate protein GSPT1 (substrate protein remaining %) (GSPT1): A (A is defined as 0% ≤ substrate protein remaining % ≤ 80%)
Degradation of substrate protein IKZF3 (substrate protein remaining %) (IKZF3): A (A is defined as 0% ≤ substrate protein remaining % ≤ 80%)
Degradation of substrate protein WEE1 (substrate protein remaining %) (WEE1): A (A is defined as 0% ≤ substrate protein remaining % ≤ 80%)
Degradation of substrate protein IKZF1 (substrate protein remaining %) (IKZF1): A (A is defined as 0% ≤ substrate protein remaining % ≤ 80%)

O=Cc1cccnc1NC1CCC(=O)NC1=O (stereo not drawn) [GT-07447, 2-((2,6-dioxopiperidin-3-yl)amino)nicotinaldehyde]
Degradation of substrate protein CK1a (substrate protein remaining %) (CK1a): A (A is defined as 0% ≤ substrate protein remaining % ≤ 80%)
Degradation of substrate protein IKZF2 (substrate protein remaining %) (IKZF2): A (A is defined as 0% ≤ substrate protein remaining % ≤ 80%)
Degradation of substrate protein GSPT1 (substrate protein remaining %) (GSPT1): A (A is defined as 0% ≤ substrate protein remaining % ≤ 80%)
Degradation of substrate protein IKZF3 (substrate protein remaining %) (IKZF3): A (A is defined as 0% ≤ substrate protein remaining % ≤ 80%)
Degradation of substrate protein WEE1 (substrate protein remaining %) (WEE1): A (A is defined as 0% ≤ substrate protein remaining % ≤ 80%)
Degradation of substrate protein IKZF1 (substrate protein remaining %) (IKZF1): A (A is defined as 0% ≤ substrate protein remaining % ≤ 80%)

O=C1CCC(Nc2cncc(CO)c2)C(=O)N1 (stereo not drawn) [GT-07448, 3-((5-(hydroxymethyl)pyridin-3-yl)amino)piperidine-2,6-dione]
Degradation of substrate protein CK1a (substrate protein remaining %) (CK1a): A (A is defined as 0% ≤ substrate protein remaining % ≤ 80%)
Degradation of substrate protein IKZF2 (substrate protein remaining %) (IKZF2): A (A is defined as 0% ≤ substrate protein remaining % ≤ 80%)
Degradation of substrate protein GSPT1 (substrate protein remaining %) (GSPT1): A (A is defined as 0% ≤ substrate protein remaining % ≤ 80%)
Degradation of substrate protein IKZF3 (substrate protein remaining %) (IKZF3): A (A is defined as 0% ≤ substrate protein remaining % ≤ 80%)
Degradation of substrate protein WEE1 (substrate protein remaining %) (WEE1): A (A is defined as 0% ≤ substrate protein remaining % ≤ 80%)
Degradation of substrate protein IKZF1 (substrate protein remaining %) (IKZF1): A (A is defined as 0% ≤ substrate protein remaining % ≤ 80%)

CC(C)(C)[Si](C)(C)OCc1cncc(NC2CCC(=O)NC2=O)c1 (stereo not drawn) [GT-07449, 3-((5-(((tert-butyldimethylsilyl)oxy)methyl)pyridin-3-yl)amino)piperidine-2,6-dione]
Degradation of substrate protein CK1a (substrate protein remaining %) (CK1a): B (B is defined as substrate protein remaining % > 80%)
Degradation of substrate protein IKZF2 (substrate protein remaining %) (IKZF2): A (A is defined as 0% ≤ substrate protein remaining % ≤ 80%)
Degradation of substrate protein GSPT1 (substrate protein remaining %) (GSPT1): B (B is defined as substrate protein remaining % > 80%)
Degradation of substrate protein IKZF3 (substrate protein remaining %) (IKZF3): B (B is defined as substrate protein remaining % > 80%)
Degradation of substrate protein WEE1 (substrate protein remaining %) (WEE1): B (B is defined as substrate protein remaining % > 80%)
Degradation of substrate protein IKZF1 (substrate protein remaining %) (IKZF1): B (B is defined as substrate protein remaining % > 80%)

O=C1CCC(Nc2ccc(CO)cn2)C(=O)N1 (stereo not drawn) [GT-07551, 3-((5-(hydroxymethyl)pyridin-2-yl)amino)piperidine-2,6-dione]
Degradation of substrate protein CK1a (substrate protein remaining %) (CK1a): B (B is defined as substrate protein remaining % > 80%)
Degradation of substrate protein IKZF2 (substrate protein remaining %) (IKZF2): A (A is defined as 0% ≤ substrate protein remaining % ≤ 80%)
Degradation of substrate protein GSPT1 (substrate protein remaining %) (GSPT1): B (B is defined as substrate protein remaining % > 80%)
Degradation of substrate protein IKZF3 (substrate protein remaining %) (IKZF3): B (B is defined as substrate protein remaining % > 80%)
Degradation of substrate protein WEE1 (substrate protein remaining %) (WEE1): A (A is defined as 0% ≤ substrate protein remaining % ≤ 80%)
Degradation of substrate protein IKZF1 (substrate protein remaining %) (IKZF1): B (B is defined as substrate protein remaining % > 80%)

CC(C)(C)[Si](C)(C)OCc1ccc(NC2CCC(=O)NC2=O)nc1 (stereo not drawn) [GT-07552, 3-((5-(((tert-butyldimethylsilyl)oxy)methyl)pyridin-2-yl)amino)piperidine-2,6-dione]
Degradation of substrate protein CK1a (substrate protein remaining %) (CK1a): B (B is defined as substrate protein remaining % > 80%)
Degradation of substrate protein IKZF2 (substrate protein remaining %) (IKZF2): A (A is defined as 0% ≤ substrate protein remaining % ≤ 80%)
Degradation of substrate protein GSPT1 (substrate protein remaining %) (GSPT1): B (B is defined as substrate protein remaining % > 80%)
Degradation of substrate protein IKZF3 (substrate protein remaining %) (IKZF3): B (B is defined as substrate protein remaining % > 80%)
Degradation of substrate protein WEE1 (substrate protein remaining %) (WEE1): B (B is defined as substrate protein remaining % > 80%)
Degradation of substrate protein IKZF1 (substrate protein remaining %) (IKZF1): B (B is defined as substrate protein remaining % > 80%)
